Reference: patent publication US20250100996A1, “HETEROCYCLOALKYL AND HETEROARYL COMPOUNDS AND PHARMACEUTICAL COMPOSITIONS THAT MODULATE IKZF2” (Plexium, Inc., priority 2021, published 2025)

Columns and labels:
[1] = target: T1, human E3 ligase component cereblon (CRBN) (Homo sapiens, UniProt Q96SW2); assay: Cereblon (CRBN) target engagement, NanoBRET TE Intracellular E3 Ligase Assay in transfected HEK-293T cells; conditions: read-out: CRBN Binding EC50
T1 construct: host or cells: HEK293T
Procedure: HEK293T cells were harvested ca. 75% confluent with trypsin and plated (500,000 cells/well) in a 6-well tissue culture plate in 2 mL of Dulbecco's Modified Eagle Medium (DMEM)^+10% Fetal Bovine Serum (FBS) and incubated overnight at 37° C.
The NanoLuc-CRBN fusion vector (Nluc-CRBN; Promega) contains the coding region of human E3 ligase component cereblon (CRBN) fused to the C-terminus of the NanoLuc luciferase coding region. A mixture of 10 ng Nluc-CRBN and 990 ng DDB1 Expression Vector (Promega) was added to 125 μL Opti-Minimum Essential Medium (Opti-MEM™; Thermo Fisher) along with […] P3000 reagent (Thermo Fisher) in a 1.5 mL epppendorf tube. This solution was added to Lipofectamine 3000 transfection reagent (5 μL; Thermo Fisher) in Opti-MEM (125 μL), mixed well, and incubated for 15 minutes at room temperature. The transfection mixture was added dropwise to cells and incubated overnight at 37° C., 5% CO2. Following transfection, cells were washed once with PBS, and trypsin (250 μL) was added and incubated 30-45 see to dislodge cells. Complete media (2 mL) was added to resuspend cells to form a single cell suspension. Cells were centrifuged at 320×g for 5 min at room temperature, the supernatant was removed, and the cell pellet resuspended in Opti-MEM (3 mL; wash step repeated ×2). After final resuspension in 5 mL Opti-MEM, cells were counted and resuspended at 200,000 cells/mL in Opti-MEM.
Cereblon target engagement was monitored by Bioluminescence Resonance Energy Transfer (BRET) in transfected HEK-293T cells using the NanoBRET TE Intracellular E3 Ligase Assay (Promega). Briefly, 384-well plates (white opaque plates, Corning 3574, low binding surface) were seeded with transfected HEK-293T cells (38 μL/well). 2 μL of 10 μM CRBN tracer (diluted 1:5 in Tracer Dilution Buffer) was added to each well. Plates were centrifuged at 320×g for 1 min at room temperature. Test compounds were added in a 11-point dilution series (typically 10 μM to 100 pM) using a TECAN D300e Digital Dispenser. Plates were shaken for 2 minutes on a microplate shaker to mix compounds. Plates were centrifuged at 320×g for 1 min at room temperature, and subsequently incubated for 2 hours at 37° C.
After incubation, plates were allowed to cool to room temperature for 15 minutes. 20 μL of 3× Complete NanoBRET™ Nano-Glo® Substrate plus Inhibitor Solution (Promega, 1:166 Substrate and 1:500 dilution of Extracellular NanoLuc® Inhibitor diluted in Opti-MEM) were added to each well. Plates were incubated with shaking at room temperature for 3 minutes covered with foil. Plates were read on a CLARIOstar microplate reader (BMG LabTech), measuring at 450 nm (donor emission) and 610 nm (acceptor emission). The IC50 values were determined by regression to best fit four-parameter logistic curves using GraphPad Prism.

IKZF2 (Helios) [2] = target: T2, IKZF2 (Helios) (Homo sapiens, UniProt Q9UKS7); assay: IKZF2 reporter degradation assay (HEK 293T IKZF2-mNeonGreen reporter cell line); assay type: cell-based; conditions: HEK 293T IKZF2-mNeonGreen reporter, 24 hours incubation
T2 construct: Leu-Asp junction (codons ctcgac before the linker); mScarlet (behind P2A) (C, cleaved yes); expressed in transfected cells
Excerpt: (§1) Polycistronic plasmids were constructed for the mammalian expression of fluorescent reporter fusions of human transcription factors IKZF1 (Ikaros), IKZF2 (Helios), and IKZF3 (Aiolos). The respective protein sequences had their C-terminal end joined to a GGGGS linker repeated three times followed by mNeonGreen, P2A sequence, and mScarlet. The DNA sequences of the open reading frames are as follows:
(§2) IKZF1, IKZF2, and IKZF3 constructs were cloned into the UCOE Hygromycin expression vectors (Millipore Sigma). Reporter constructs were transfected using cationic lipid reagents into adherent HEK 293T cells and stable integrants were selected by treatment with 200 μg/mL hygromycin B. Clonal populations were obtained from the population of stable integrants either by limiting dilution or fluorescence activated cell sorting.
(§3) The clonal stable cell lines were maintained under constant 200 μg/mL hygromycin B selection while being passaged for use in the degradation assays. […] The fluorescence intensity of the IKZF1/2/3-mNeonGreen (FITC channel) and mScarlet (PE channel) reporters were routinely analyzed by flow cytometry to confirm consistent expression levels between experiments.
(§4) The IKZF1/IKZF2/IKZF3 degradation assays were carried out by harvesting the HEK 293T reporter cell lines and resuspending the cells in media formulated for reduced background fluorescence (FluoroBrite; Thermo Fisher). The respective cell lines were seeded at a density of 4000 cells/well into black-walled 384-well optical grade assay tissue culture plates. The cells were incubated overnight at 37° C. to allow for attachment to the assay plate. Dilutions of the compounds were prepared in DMSO from 10 mM compound stocks. The assay plates were treated with appropriate concentrations of the compounds by dispensing the DMSO dilutions in quadruplicate wells with an upper limit of 0.5% final DMSO.
(§5) After 24 hours incubation with the compounds, the assay plates were imaged on an ImageXpress Pico microscopy system (cells maintained at 37° C. during imaging) to obtain the fluorescent readouts. The assay plates were imaged in the FITC and Tetramethylrhodamine (TRITC) channels to obtain the mNeonGreen fluorescence intensity (reporter degradation data) and mScarlet fluorescence intensity (for cell segmentation). 293T-IKZF1 and 293T-IKZF3 reporter cell lines were imaged with exposures of 500 milliseconds (ms) for both FITC and TRITC channels, while the 293T-IKZF2 reporter cell line was imaged with exposures of 1000 ms for FITC and 1250 ms for TRITC. The resulting data was analyzed with Cell Reporter Xpress software using the 2-channel cell scoring analysis with a “percent positive” readout. The TRITC channel was selected for the “nuclei” segmentation with a threshold of 20 while the FITC channel was selected for the “Marker 1” segmentation and a threshold of 100 for the IKZF1 and IKZF3 reporter lines. […] The minimum segmentation width was set to 6 micrometers and the maximum segmentation width was set to 15 micrometers for all cell lines. The DC50 calculations were determined by regression to best fit four-parameter logistic curves using GraphPad Prism.

IKZF3 (Aiolos) = target: T3, IKZF3 (Aiolos) (Homo sapiens, UniProt Q9UKT9); assay: IKZF3 reporter degradation assay (HEK 293T IKZF3-mNeonGreen reporter cell line); assay type: cell-based; conditions: HEK 293T IKZF3-mNeonGreen reporter, 24 hours incubation
T3 construct: Leu-Asp junction (codons ctcgac before the linker); mScarlet (behind P2A) (C, cleaved yes); expressed in transfected cells
Excerpt: as §1, §2, §3, §4, §5

IKZF2 (Helios) [3] = target: T4, IKZF2 (Helios) (Homo sapiens, UniProt Q96SW2+Q9UKS7); assay: IKZF2 reporter degradation assay (HEK 293T IKZF2-mNeonGreen reporter cell line); assay type: cell-based; conditions: HEK-293T, 24 h, @ 1 μM, HEK 293T IKZF2-mNeonGreen reporter, 24 hours incubation
T4 construct: Leu-Asp junction (codons ctcgac before the linker); mScarlet (behind P2A) (C, cleaved yes); expressed in transfected cells
Excerpt: as §1, §2, §3, §4, §5

T1 sequence (Q96SW2 whole entry): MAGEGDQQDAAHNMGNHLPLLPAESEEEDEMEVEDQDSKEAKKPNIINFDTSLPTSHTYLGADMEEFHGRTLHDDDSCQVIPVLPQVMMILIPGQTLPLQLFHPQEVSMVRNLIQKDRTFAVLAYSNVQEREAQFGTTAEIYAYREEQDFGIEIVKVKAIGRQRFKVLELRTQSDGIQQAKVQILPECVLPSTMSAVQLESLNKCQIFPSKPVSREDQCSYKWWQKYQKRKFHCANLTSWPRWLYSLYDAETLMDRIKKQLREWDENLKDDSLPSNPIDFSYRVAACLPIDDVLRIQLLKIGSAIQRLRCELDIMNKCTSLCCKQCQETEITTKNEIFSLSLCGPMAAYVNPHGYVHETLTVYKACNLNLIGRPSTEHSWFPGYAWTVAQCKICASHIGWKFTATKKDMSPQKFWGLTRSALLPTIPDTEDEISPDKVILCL
T1 sequence (Q16531 whole entry partner): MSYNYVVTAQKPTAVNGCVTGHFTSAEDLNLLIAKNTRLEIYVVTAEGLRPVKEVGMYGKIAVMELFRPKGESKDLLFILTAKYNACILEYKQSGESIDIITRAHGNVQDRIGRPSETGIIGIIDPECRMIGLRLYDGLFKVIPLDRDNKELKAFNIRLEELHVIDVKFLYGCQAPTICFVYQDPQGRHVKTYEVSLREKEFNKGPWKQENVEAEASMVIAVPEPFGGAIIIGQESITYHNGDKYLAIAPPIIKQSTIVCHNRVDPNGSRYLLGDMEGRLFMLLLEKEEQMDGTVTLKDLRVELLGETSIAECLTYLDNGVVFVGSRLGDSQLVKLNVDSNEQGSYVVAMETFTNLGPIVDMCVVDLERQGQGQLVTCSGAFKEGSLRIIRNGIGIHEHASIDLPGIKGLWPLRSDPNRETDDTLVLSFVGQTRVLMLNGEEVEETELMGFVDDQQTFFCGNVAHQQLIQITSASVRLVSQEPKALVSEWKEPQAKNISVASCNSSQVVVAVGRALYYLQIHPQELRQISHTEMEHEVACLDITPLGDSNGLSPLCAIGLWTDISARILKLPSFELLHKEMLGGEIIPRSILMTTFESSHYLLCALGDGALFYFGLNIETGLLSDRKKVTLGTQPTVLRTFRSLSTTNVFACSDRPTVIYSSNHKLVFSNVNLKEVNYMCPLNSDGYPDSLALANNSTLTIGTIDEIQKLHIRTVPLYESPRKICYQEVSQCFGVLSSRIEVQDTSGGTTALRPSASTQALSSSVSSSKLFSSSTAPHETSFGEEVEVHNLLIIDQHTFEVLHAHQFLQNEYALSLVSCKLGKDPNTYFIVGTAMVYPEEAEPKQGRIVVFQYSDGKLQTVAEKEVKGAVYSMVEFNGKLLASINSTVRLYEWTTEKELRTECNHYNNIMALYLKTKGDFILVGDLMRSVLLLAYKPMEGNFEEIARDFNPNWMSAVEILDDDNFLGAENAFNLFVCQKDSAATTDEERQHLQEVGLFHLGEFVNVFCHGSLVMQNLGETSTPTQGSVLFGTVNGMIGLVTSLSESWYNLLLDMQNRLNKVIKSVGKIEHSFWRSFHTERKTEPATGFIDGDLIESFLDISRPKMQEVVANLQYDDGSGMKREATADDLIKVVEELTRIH
T3 sequence (Q96SW2 whole entry partner): as the sequence (Q96SW2 whole entry) above
T3 sequence (Q16531 whole entry partner): as the sequence (Q16531 whole entry partner) above
T3 sequence (Q9UKT9 whole entry): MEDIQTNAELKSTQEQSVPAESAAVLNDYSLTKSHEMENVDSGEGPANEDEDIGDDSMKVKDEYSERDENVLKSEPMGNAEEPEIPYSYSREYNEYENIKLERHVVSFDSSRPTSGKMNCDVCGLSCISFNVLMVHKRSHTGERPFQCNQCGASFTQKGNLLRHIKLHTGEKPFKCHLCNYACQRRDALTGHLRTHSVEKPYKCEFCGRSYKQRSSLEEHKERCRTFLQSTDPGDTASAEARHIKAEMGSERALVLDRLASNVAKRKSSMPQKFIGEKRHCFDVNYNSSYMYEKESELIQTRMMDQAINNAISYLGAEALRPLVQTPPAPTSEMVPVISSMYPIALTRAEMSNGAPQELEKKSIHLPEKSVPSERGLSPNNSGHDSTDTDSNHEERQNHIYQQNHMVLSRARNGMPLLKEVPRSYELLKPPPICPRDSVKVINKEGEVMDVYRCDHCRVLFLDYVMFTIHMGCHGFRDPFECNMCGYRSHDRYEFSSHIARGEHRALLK
T2 sequence (Q9UKS7 whole entry): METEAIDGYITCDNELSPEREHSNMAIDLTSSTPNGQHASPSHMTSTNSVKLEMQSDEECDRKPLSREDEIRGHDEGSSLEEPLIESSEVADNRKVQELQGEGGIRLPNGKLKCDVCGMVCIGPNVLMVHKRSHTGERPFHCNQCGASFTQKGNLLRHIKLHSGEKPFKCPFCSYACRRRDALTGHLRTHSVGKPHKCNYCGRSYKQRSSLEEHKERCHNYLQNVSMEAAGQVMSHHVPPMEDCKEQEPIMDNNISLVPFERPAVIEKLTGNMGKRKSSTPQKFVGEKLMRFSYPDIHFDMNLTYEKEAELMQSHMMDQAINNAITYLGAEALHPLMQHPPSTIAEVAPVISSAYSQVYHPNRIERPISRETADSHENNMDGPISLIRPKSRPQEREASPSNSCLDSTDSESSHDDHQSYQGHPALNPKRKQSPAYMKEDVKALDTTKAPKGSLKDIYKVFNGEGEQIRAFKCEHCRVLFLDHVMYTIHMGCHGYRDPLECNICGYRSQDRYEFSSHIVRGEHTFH
T2 sequence (Q96SW2 whole entry, further chain): as the sequence (Q96SW2 whole entry) above
T2 sequence (Q16531 whole entry partner): as the sequence (Q16531 whole entry partner) above
T4 sequence (Q9UKS7 whole entry): as the sequence (Q9UKS7 whole entry) above
T4 sequence (Q96SW2 whole entry): as the sequence (Q96SW2 whole entry) above
T4 sequence (Q16531 whole entry partner): as the sequence (Q16531 whole entry partner) above

SMILES | EC50 [1] [nM] | DC50 (IKZF2 (Helios) [2]) [µM] | DC50 (IKZF3 (Aiolos)) [µM] | inhibition at 1 µM (IKZF2 (Helios) [3]) [%]
O=C1CCC(N2Cc3cc(OC4CCCCC4N4CC(c5cncc(C(F)(F)F)c5)C4)ccc3C2=O)C(=O)N1 (stereo not shown) [Compound 178-B, 3-(1-oxo-5-((2-(3-(5-(trifluoromethyl)pyridin-3-yl)azetidin-1-yl)cyclohexyl)oxy)isoindolin-2-yl)piperidine-2,6-dione] | 39 | > 30 | > 30 | 
O=C1CCC(N2Cc3cc(O[C@H]4CCCC[C@H]4N4CC(c5ccc(Cl)cn5)C4)ccc3C2=O)C(=O)N1 (mixture of isomers) [Compound 164-B, Rac-3-(5-(((cis)-2-(3-(5-chloropyridin-2-yl)azetidin-1-yl)cyclohexyl)oxy)-1-oxoisoindolin-2-yl)piperidine-2,6-dione] | 15 | > 30 | > 30 | 
N#Cc1cc(C2CN([C@H]3CCCC[C@@H]3Oc3ccc4c(c3)CN(C3CCC(=O)NC3=O)C4=O)C2)ccn1 (mixture of isomers) [Compound 180-B, Rac-4-(1-((trans)-2-((2-(2,6-dioxopiperidin-3-yl)-1-oxoisoindolin-5-yl)oxy)cyclohexyl)azetidin-3-yl)picolinonitrile] | 41 | > 30 | > 30 | 
O=C1CCC(N2Cc3cc(O[C@@H]4CCCC[C@H]4N4CC(c5ccc(C(F)(F)F)nc5)C4)ccc3C2=O)C(=O)N1 (single isomer, unassigned) [Compound 124-B] | 29 | > 30 | > 30 | 
O=C1CCC(N2Cc3cc(OC4CCCC4N4CC(c5cncc(C(F)(F)F)c5)C4)ccc3C2=O)C(=O)N1 (stereo not shown) [Compound 154-B, 3-(1-oxo-5-((2-(3-(5-(trifluoromethyl)pyridin-3-yl)azetidin-1-yl)cyclopentyl)oxy)isoindolin-2-yl)piperidine-2,6-dione] | 56 | > 30 | > 30 | 
O=C1CCC(N2Cc3cc(O[C@H]4CCCC[C@H]4N4CC(c5ccc6ccccc6n5)C4)ccc3C2=O)C(=O)N1 (stereo partly drawn) [Compound 88-B, 3-(1-oxo-5-(((1S,2R)-2-(3-(quinolin-2-yl)azetidin-1-yl)cyclohexyl)oxy)isoindolin-2-yl)piperidine-2,6-dione] | 10 | > 30 | > 30 | 
O=C1NC(=O)C2(N3Cc4cc(OC5CCCC5N5CC(c6ccncc6)C5)ccc4C3=O)CC1C2 (stereo not shown) [Compound 148-B, 1-(1-oxo-5-((2-(3-(pyridin-4-yl)azetidin-1-yl)cyclopentyl)oxy)isoindolin-2-yl)-3-azabicyclo[3.1.1]heptane-2,4-dione] | > 10000 | > 30 | > 30 | 
O=C1CCC(N2Cc3cc(O[C@H]4CCCC[C@@H]4N4CC(c5ccnc6[nH]ccc56)C4)ccc3C2=O)C(=O)N1 (single isomer, unassigned) [Compound 113-B] | 30 | 0.062 |  | 29.7
O=C1CCC(N2Cc3cc(OC4CCCC4N4CC(c5ccc(C(F)(F)F)nc5)C4)ccc3C2=O)C(=O)N1 (stereo not shown) [Compound 141-B, 3-(1-oxo-5-((2-(3-(6-(trifluoromethyl)pyridin-3-yl)azetidin-1-yl)cyclopentyl)oxy)isoindolin-2-yl)piperidine-2,6-dione] | 37 | > 30 | > 30 | 
O=C1CCC(N2Cc3cc(O[C@H]4CCCC[C@H]4N4CC(c5ccc(Cl)cn5)C4)ccc3C2=O)C(=O)N1 (single isomer, unassigned) [Compound 98-B] | 55 | 0.111 |  | 41.3
O=C1CCC(N2Cc3cc(O[C@@H]4CCCC[C@H]4N4CC(c5ncc(Cl)cn5)C4)ccc3C2=O)C(=O)N1 (single isomer, unassigned) [Compound 109-B] | 9 | > 30 |  | 
O=C1CCC(N2Cc3cc(O[C@@H]4CCCC[C@H]4N4CC(c5ncc(Br)cn5)C4)ccc3C2=O)C(=O)N1 (single isomer, unassigned) [Compound 106-B] | 6 | > 30 |  | 
O=C1CCC(N2Cc3cc(O[C@H]4CCCC[C@H]4N4CC(c5ncc(C(F)(F)F)cn5)C4)ccc3C2=O)C(=O)N1 (single isomer, unassigned) [Compound 121-B] | 5 | > 30 |  | 
O=C1CCC(N2Cc3cc(O[C@@H]4CCCC[C@@H]4N4CC(c5ncc(Br)cn5)C4)ccc3C2=O)C(=O)N1 (mixture of isomers) [Compound 138-B, Rac-3-(5-(((cis)-2-(3-(5-bromopyrimidin-2-yl)azetidin-1-yl)cyclohexyl)oxy)-1-oxoisoindolin-2-yl)piperidine-2,6-dione] | 5 | > 30 | > 30 | 
O=C1CCC(N2Cc3cc(O[C@H]4CCCC[C@H]4N4CC(c5cncc(Cl)c5)C4)ccc3C2=O)C(=O)N1 (single isomer, unassigned) [Compound 115-B] | 64 | 0.177 |  | 21.7
O=C1CCC(N2Cc3cc(O[C@@H]4CCCC[C@@H]4N4CC(c5ncc(C(F)(F)F)cn5)C4)ccc3C2=O)C(=O)N1 (single isomer, unassigned) [Compound 118-B] | 4 | > 30 |  | 
O=C1CCC(N2Cc3cc(O[C@H]4CCCC[C@@H]4N4CC(c5ncncc5Cl)C4)ccc3C2=O)C(=O)N1 (mixture of isomers) [Compound 140-B, Rac-3-(5-(((trans)-2-(3-(5-chloropyrimidin-4-yl)azetidin-1-yl)cyclohexyl)oxy)-1-oxoisoindolin-2-yl)piperidine-2,6-dione] | 34 | > 30 | > 30 | 
O=C1CCC(N2Cc3cc(O[C@H]4CCCC[C@H]4N4CC(c5cncc(Cl)c5)C4)ccc3C2=O)C(=O)N1 (single isomer, unassigned) [Compound 114-B] | 20 | > 30 |  | 
